These compounds were tested against T1, hAR (Homo sapiens, UniProt P10275) (assay: Competitive binding analysis on baculovirus/Sf9 generated hAR extracts with 3H-DHT tracer). Details: AR Binding IC50, hAR extract, 1 nM 3H-DHT, one hour at 4° C.; mean of multiple tests.
T1 construct: made in house; host or cells: baculovirus/Sf9 insect cells
T1 sequence (P10275 1-920): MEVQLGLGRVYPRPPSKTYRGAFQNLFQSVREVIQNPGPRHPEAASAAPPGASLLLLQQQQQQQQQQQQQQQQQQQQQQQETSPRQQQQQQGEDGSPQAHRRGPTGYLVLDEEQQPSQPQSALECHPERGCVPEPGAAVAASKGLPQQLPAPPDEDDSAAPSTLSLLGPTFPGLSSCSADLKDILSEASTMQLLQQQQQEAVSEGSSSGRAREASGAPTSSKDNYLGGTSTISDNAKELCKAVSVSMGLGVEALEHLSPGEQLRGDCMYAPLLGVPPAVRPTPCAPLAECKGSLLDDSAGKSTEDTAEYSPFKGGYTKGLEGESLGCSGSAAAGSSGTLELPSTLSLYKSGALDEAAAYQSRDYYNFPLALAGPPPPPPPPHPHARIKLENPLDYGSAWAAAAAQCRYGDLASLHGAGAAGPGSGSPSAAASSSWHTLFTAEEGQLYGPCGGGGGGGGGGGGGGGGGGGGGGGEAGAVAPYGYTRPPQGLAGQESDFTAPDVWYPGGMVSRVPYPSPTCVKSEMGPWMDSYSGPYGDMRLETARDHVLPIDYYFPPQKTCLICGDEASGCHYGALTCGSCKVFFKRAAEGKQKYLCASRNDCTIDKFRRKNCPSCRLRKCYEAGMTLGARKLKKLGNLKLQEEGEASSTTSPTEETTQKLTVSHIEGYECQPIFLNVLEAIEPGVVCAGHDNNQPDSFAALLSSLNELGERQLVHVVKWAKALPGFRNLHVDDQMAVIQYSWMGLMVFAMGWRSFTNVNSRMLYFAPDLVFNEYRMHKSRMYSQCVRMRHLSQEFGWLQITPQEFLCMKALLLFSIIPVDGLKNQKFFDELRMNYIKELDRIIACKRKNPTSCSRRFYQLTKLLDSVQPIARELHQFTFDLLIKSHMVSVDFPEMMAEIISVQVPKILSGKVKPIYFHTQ
Description: The description below describes how the assay was carried out.
Competitive binding analysis was performed on baculovirus/Sf9 generated hAR extracts in the presence or absence of different concentrations of test agent and a fixed concentration of ^3H-dihydrotestosterone (^3H-DHT) as tracer. This binding assay method is a modification of a protocol previously described (Liao S., et. al. J. Steroid Biochem. 20:11-17 1984). Briefly, progressively decreasing concentrations of compounds are incubated in the presence of hAR extract (Chang et al. P.N.A.S. Vol. 89, pp. […], 1992), hydroxylapatite, and 1 nM ^3H-DHT for one hour at 4° C. Subsequently, the binding reactions are washed three times to completely remove excess unbound ^3H-DHT. hAR bound ^3H-DHT levels are determined in the presence of compounds (i.e. competitive binding) and compared to levels bound when no competitor is present (i.e. maximum binding). Compound binding affinity to the hAR is expressed as the concentration of compound at which one half of the maximum binding is inhibited.

Row | SMILES | IC50 [µM]
1 | CO[C@H]1CCC[C@@H]1Oc1ccc(C#N)c(Cl)c1 (relative stereo) [Example 35, 2-Chloro-4-(trans-2-methoxy-cyclopentyloxy)-benzonitrile] | 0.097
2 | N#Cc1ccc(OC2CCCCC2c2ccccc2)cc1Cl (centres unmarked) [Example 29, 2-Chloro-4-(2-phenyl-cyclohexyloxy)-benzonitrile] | 0.089
3 | N#Cc1ccc(O[C@@H]2CCCC[C@H]2c2ccccc2)cc1Cl [Example 58, (1R,2S) 2-Chloro-4-(2-phenyl-cyclohexyloxy)-benzonitrile] | 0.278
4 | C[C@H]1CCCC[C@@H]1Oc1ccc(C#N)c(Cl)c1 [Example 30, 2-Chloro-4-(2-(S)-methyl-(S)-cyclohexyloxy)-benzonitrile] | 0.024
5 | CO[C@@H]1CCCC[C@H]1Oc1ccc(C#N)c(Cl)c1 (relative stereo) [Example 39, 2-Chloro-4-(trans-2-methoxy-cyclohexyloxy)-benzonitrile] | 0.076
6 | CC1CCCCC1Oc1ccc(C#N)c(Cl)c1 (centres unmarked) [Example 28, 2-Chloro-4-(2-methyl-cyclohexyloxy)-benzonitrile] | 0.049
7 | N#Cc1ccc(O[C@@H]2CCCC[C@@H]2c2ccccc2)cc1Cl [Example 56, (1R,2R)-2-Chloro-4-(2-phenyl-cyclohexyloxy)-benzonitrile] | 0.366
8 | CC1CCCC(Oc2ccc(C#N)c(Cl)c2)C1C (centres unmarked) [Example 20, 2-Chloro-4-(2,3-dimethyl-cyclohexyloxy)-benzonitrile] | 0.227

Same assay, conditions: hAR extract, 1 nM 3H-DHT, one hour at 4° C.; mean of multiple tests; read-out: AR Binding IC50

Row | SMILES | IC50 [µM]
9 | C[C@H]1CC[C@@H](Oc2ccc(C#N)c(C(F)(F)F)c2)CC1 [Example 16] | 0.479
10 | C[C@H]1CC[C@@H](Oc2ccc(C#N)c(Cl)c2)CC1 [Example 54, (1S,4S)-2-Chloro-4-(4-methyl-cyclohexyloxy)-benzonitrile] | 0.356
11 | C=C(C)[C@H]1CC[C@H](C)[C@@H](Oc2ccc(C#N)c(C(F)(F)F)c2)C1 [Example 13, (1S,2S,5S)-4-(5-Isopropenyl-2-methyl-cyclohexyloxy)-2-trifluoromethyl-benzonitrile] | 0.102
12 | CC1(C)CC(Oc2ccc(C#N)cc2Cl)CC(C)(C)C1 [Example 44, 3-Chloro-4-(3,3,5,5-tetramethyl-cyclohexyloxy)-benzonitrile] | 0.41
13 | CC1CCC(Oc2ccc(C#N)c(Cl)c2)CC1C (centres unmarked) [Example 51, 2-Chloro-4-(3,4-dimethyl-cyclohexyloxy)-benzonitrile] | 0.442
14 | N#Cc1ccc(OC2CCC2)cc1C(F)(F)F [Example 18, 4-Cyclobutoxy-2-trifluoromethyl-benzonitrile] | 0.466
15 | CC(C)[C@H]1CC[C@H](C)C[C@@H]1Oc1ccc(C#N)cc1Cl [Example 61, (1S,2R,5S)-3-Chloro-4-(2-isopropyl-5methyl-cyclohexyloxy)-benzonitrile] | 0.257
16 | CC1CCCC(Oc2ccc(C#N)cc2Cl)C1C (centres unmarked) [Example 63, 3-Chloro-4-(2,3-dimethyl-cyclohexyloxy)-benzonitrile] | 0.374
17 | C[C@H]1CC[C@H](Oc2ccc(C#N)cc2Cl)CC1 [Example 59, (1S,4R)-3-Chloro-4-(4-methyl-cyclohexyloxy)-benzonitrile] | 0.341
18 | C[C@@H]1CCCC[C@H]1Oc1ccc(C#N)cc1Cl [Example 42, (1R,2R)-3-Chloro-4-(2-methyl-cyclohexyloxy)benzonitrile] | 0.343
19 | N#Cc1ccc(OC2CCCCCC2)cc1C(F)(F)F [Example 5, 4-cycloheptyloxy-2-trifluoromethyl-benzonitrile] | 0.319
20 | C[C@H]1CC(Oc2ccc(C#N)c(Cl)c2)C[C@H](C)C1 (stereo partly drawn) [Example 65, (3R,5R)-2-Chloro-4-(trans)-(3,5-dimethyl-cyclohexyloxy)-benzonitrile] | 0.437
21 | C[C@H]1CCC[C@@H]1Oc1ccc(C#N)c(C(F)(F)F)c1 (relative stereo) [Example 2, 4-(trans-2-Methyl-cyclopentyloxy)-2-trifluoromethyl-benzonitrile] | 0.153
22 | C[C@@H]1CCC[C@H](Oc2ccc(C#N)c(Cl)c2)C1 [Example 48, (1S,3R)-2-Chloro-4-(3-methyl-cyclohexyloxy)-benzonitrile] | 0.218
23 | C[C@@H]1CCC[C@H](Oc2ccc(C#N)cc2Cl)C1 [Example 60, (1S,3R)3-Chloro-4-(3-methyl-cyclohexyloxy)-benzonitrile] | 0.388
24 | C[C@@H]1CCC[C@H]1Oc1ccc(C#N)cc1Cl [Example 66, (1R,2R)-3-Chloro-4-(2-methyl-cyclopentyloxy)-benzonitrile] | 0.402
25 | CC1CCCC(Oc2ccc(C#N)c(C(F)(F)F)c2)C1C (centres unmarked) [Example 6, 4-(2,3-Dimethyl-cyclohexyloxy)-2-trifluoromethyl-benzonitrile] | 0.356
26 | COC1CCC(Oc2ccc(C#N)c(C(F)(F)F)c2)CC1 (centres unmarked) [Example 15, 4-(4-Methoxy-cyclohexyloxy)-2-trifluoromethyl-benzonitrile] | 0.243
27 | C[C@H]1CCC[C@@H]1Oc1ccc(C#N)c(C(F)(F)F)c1 [Example 17, (1S,2S)-4-(2-Methyl-cyclopentyloxy)-2-trifluoromethyl-benzonitrile] | 0.252
28 | C=CCO[C@H]1CCC[C@H]1Oc1ccc(C#N)c(Cl)c1 (relative stereo) [Example 37, 4-(cis-2-Allyloxy-cyclopentyloxy)-2-chloro-benzonitrile] | 0.134
29 | C=CCO[C@H]1CCC[C@@H]1Oc1ccc(C#N)c(Cl)c1 (relative stereo) [Example 38, 4-(trans-2-Allyloxy-cyclopentyloxy)-2-chloro-benzonitrile] | 0.12

From patent US7670613B2, “Androgen modulators” (Pfizer Inc., priority 2004, dated 2010)
